Data as given in ChEMBL document CHEMBL1142468, “Discovery, SAR and X-ray structure of 1H-benzimidazole-5-carboxylic acid cyclohexyl-methyl-amides as inhibitors of inducible T-cell kinase (Itk)” (Bioorg Med Chem Lett, 2008).
Calls of active or inactive are those of the source. The rule behind the calls is not given here.

Key:
[1] = molecular target: Insulin receptor (Homo sapiens, UniProt P06213); assay: Inhibition of IRK
[2] = molecular target: T1, Tyrosine-protein kinase ITK/TSK (Homo sapiens, UniProt Q08881); assay: Inhibition of ITK by DELFIA assay
T1 sequence (Q08881 whole entry): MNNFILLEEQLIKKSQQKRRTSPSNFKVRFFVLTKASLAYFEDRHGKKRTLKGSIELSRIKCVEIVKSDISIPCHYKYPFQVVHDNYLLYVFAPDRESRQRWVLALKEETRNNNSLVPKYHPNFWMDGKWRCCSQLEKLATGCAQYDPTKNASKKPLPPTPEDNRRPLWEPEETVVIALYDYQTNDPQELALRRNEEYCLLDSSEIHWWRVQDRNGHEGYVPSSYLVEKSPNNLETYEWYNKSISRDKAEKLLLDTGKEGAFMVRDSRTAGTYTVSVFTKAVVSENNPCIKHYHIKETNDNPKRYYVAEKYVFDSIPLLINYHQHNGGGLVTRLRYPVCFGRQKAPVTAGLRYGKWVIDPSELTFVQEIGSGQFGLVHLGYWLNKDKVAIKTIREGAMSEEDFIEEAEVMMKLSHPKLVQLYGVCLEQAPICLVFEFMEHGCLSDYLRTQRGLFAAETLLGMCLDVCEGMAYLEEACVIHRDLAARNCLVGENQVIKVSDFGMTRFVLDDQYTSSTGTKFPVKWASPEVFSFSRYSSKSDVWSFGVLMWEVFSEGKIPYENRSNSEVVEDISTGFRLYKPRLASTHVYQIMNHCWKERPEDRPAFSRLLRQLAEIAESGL

[3] = test system: Splenocyte; assay: Inhibition of anti-CD3-induced IL2 secretion in mouse splenocytes
[4] = test system: T-cell; assay: Inhibition of anti-CD3/anti-CD28-induced IL2 secretion in human CD4+ T cells
[5] = Inhibition of anti-CD3-induced IL2 secretion in mouse TH1 cells
[6] = molecular target: T1, Tyrosine-protein kinase ITK/TSK; assay: Inhibition of human ITK expressed in chicken DT40 cells assessed as B cell receptor-stimulated calcium influx by FLIPR assay; type: cell-based
[7] = test system: Mus musculus; assay: Inhibition of anti-CD3-induced IL2 production in sc dosed mouse; type: functional, organism-based
[8] = molecular target: Tyrosine-protein kinase BTK (Homo sapiens) (UniProt Q06187); assay: Inhibition of Btk
Chain of Tyrosine-protein kinase BTK (Homo sapiens) (Q06187 whole entry): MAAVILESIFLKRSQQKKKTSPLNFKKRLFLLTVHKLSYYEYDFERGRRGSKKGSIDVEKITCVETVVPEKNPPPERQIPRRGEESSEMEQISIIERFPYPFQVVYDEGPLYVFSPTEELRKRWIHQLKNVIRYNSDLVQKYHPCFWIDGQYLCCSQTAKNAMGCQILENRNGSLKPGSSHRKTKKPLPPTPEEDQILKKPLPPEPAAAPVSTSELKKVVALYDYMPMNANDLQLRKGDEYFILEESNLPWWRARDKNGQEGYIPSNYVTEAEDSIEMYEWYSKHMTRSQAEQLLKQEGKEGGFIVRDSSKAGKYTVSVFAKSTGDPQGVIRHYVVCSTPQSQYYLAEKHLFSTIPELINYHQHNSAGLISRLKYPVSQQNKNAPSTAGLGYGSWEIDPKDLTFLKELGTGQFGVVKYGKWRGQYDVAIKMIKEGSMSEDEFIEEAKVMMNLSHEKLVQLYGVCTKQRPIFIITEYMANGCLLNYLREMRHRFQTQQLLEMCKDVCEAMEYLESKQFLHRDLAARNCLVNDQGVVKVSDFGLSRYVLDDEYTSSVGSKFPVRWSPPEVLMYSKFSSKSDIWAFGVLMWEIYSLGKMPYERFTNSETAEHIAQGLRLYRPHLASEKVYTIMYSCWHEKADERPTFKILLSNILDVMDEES

[9] = molecular target: Tyrosine-protein kinase Lyn (Homo sapiens) (UniProt P07948); assay: Inhibition of Lyn kinase
Chain of Tyrosine-protein kinase Lyn (Homo sapiens) (P07948 2-512 limits assumed): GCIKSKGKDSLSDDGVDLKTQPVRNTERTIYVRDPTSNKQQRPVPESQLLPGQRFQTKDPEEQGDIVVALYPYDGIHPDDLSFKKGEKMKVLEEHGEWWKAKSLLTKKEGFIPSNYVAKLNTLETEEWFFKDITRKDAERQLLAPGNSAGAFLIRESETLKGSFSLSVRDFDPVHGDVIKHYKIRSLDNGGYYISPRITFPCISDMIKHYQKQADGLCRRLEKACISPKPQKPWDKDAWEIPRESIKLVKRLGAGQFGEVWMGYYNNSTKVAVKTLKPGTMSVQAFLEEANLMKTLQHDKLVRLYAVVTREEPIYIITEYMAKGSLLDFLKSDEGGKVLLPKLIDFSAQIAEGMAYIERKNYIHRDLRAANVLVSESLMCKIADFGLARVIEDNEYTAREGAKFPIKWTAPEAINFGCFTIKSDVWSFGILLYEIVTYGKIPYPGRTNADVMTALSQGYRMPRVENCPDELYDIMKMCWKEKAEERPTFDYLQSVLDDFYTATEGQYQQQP

[10] = molecular target: Tyrosine-protein kinase SYK (Homo sapiens) (UniProt P43405); assay: Inhibition of Syk

Chain of Insulin receptor (P06213 28-758 limits assumed): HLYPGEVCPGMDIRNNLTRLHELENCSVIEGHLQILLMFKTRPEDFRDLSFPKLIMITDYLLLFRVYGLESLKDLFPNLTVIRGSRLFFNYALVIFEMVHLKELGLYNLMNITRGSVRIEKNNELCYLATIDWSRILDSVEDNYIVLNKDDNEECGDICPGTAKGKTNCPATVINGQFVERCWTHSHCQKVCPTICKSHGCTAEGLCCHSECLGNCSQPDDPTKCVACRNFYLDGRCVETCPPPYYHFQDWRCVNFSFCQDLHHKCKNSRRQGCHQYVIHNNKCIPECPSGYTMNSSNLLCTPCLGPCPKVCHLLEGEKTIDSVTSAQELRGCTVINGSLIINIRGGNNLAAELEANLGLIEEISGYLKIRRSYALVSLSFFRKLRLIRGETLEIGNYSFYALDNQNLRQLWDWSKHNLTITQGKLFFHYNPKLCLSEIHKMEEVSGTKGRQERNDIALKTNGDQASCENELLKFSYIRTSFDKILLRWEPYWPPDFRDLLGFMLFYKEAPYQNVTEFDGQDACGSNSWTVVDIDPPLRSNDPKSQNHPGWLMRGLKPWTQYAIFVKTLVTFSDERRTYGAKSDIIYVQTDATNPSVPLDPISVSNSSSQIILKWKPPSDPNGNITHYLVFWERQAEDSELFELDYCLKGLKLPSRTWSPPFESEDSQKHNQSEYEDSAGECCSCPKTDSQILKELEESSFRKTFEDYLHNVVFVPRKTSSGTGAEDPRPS
Chain of Insulin receptor (P06213 763-1382 limits assumed): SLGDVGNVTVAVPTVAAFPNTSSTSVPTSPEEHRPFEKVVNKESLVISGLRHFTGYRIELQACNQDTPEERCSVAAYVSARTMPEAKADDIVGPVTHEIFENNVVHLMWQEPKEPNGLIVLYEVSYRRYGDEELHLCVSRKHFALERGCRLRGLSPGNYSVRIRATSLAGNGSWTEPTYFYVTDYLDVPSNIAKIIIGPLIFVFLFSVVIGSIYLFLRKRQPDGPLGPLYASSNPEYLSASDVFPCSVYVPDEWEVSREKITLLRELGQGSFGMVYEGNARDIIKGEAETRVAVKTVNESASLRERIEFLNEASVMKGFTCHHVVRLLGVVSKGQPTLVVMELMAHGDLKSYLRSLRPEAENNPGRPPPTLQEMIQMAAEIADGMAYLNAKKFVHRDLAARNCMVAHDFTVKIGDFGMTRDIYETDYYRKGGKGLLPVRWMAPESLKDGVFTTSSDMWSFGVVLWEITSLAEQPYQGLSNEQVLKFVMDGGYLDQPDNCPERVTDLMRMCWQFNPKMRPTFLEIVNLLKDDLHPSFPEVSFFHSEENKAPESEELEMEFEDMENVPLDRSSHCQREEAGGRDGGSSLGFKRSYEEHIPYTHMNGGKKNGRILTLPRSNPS

| SMILES | IC50 [1] [nM] | IC50 [2] [nM] | further results |
| --- | --- | --- | --- |
| Cc1cccc(C(=O)Nc2nc3cc(N(C)C(=O)C4CCCCC4)ccc3n2CCC(N)=O)c1 | 550 |  |  |
| COc1cccc(C(=O)Nc2nc3cc(N(C)C(=O)C4CCCCC4)ccc3n2CCC(N)=O)c1 | 550 |  |  |
| CNC(=O)c1ccc(C(=O)Nc2nc3cc(N(C)C(=O)C4CCCCC4)ccc3n2CCC(N)=O)cc1 |  | 1800 |  |
| Cc1ccc(C(=O)Nc2nc3cc(N(C)C(=O)C4CCCCC4)ccc3n2CCC(N)=O)cc1 | > 10000 |  |  |
| CNc1ccc2c(c1)nc(NC(=O)c1ccc(C#N)cc1)n2CCC(N)=O |  | 76 |  |
| CCCCCCCn1c(NC(=O)c2ccc(C#N)cc2)nc2cc(N(C)C(=O)C3CCCCC3)ccc21 |  | 4500 |  |
| CC(=O)c1ccc(C(=O)Nc2nc3cc(N(C)C(=O)C4CCCCC4)ccc3n2CCC(N)=O)cc1 | > 10000 |  |  |
| CNC(=O)CCn1c(NC(=O)c2ccc(C#N)cc2)nc2cc(N(C)C(=O)C3CCCCC3)ccc21 |  | 9 |  |
| CN(C(=O)C1CCCCC1)c1ccc2c(c1)nc(N)n2CCC(N)=O |  | > 20000 |  |
| CN(C(=O)C1CCCCC1)c1ccc2c(c1)nc(CC(=O)c1ccc(Cl)cc1)n2CCc1ccccc1 |  | > 20000 |  |
| CN(C(=O)C1CCCCC1)c1ccc2c(c1)nc(NC(=O)c1ccc(Br)cc1)n2CCC(N)=O | > 10000 | 3 |  |
| CN(C(=O)C1CCCCC1)c1ccc2c(c1)nc(NC(=O)c1ccc(Cl)cc1)n2CCC(N)=O |  |  | IC50 [3]: 520 nM; IC50 [4]: 4100 nM; IC50 [5]: 440 nM |
| CN(C(=O)C1CCCCC1)c1ccc2c(c1)nc(NC(=O)c1ccc(C#N)cc1)n2CCCn1ccnc1 |  | 4 | IC50 [4]: 650 nM; IC50 [6]: 510 nM; IC50 [5]: 350 nM |
| CC(C)C(=O)N(C)c1ccc2c(c1)nc(NC(=O)c1ccc(C#N)cc1)n2CCC(N)=O |  | 220 |  |
| CC(C)n1c(NC(=O)c2ccc(C#N)cc2)nc2cc(N(C)C(=O)C3CCCCC3)ccc21 |  | 35 |  |
| CN(C(=O)C1CCCCC1)c1ccc2c(c1)nc(NC(=O)c1cccc(Br)c1)n2CCC(N)=O | 95 | 9 |  |
| CC(=O)N1CCN(C(=O)c2cc(CSc3cnc(NC(=O)c4ccc(CNC(C)C(C)(C)C)cc4)s3)cc(C)c2C)CC1 (stereo not drawn) |  |  | Activity [7]: Dose-dependent effect |
| COc1ccc(C(=O)Nc2nc3cc(N(C)C(=O)C4CCCCC4)ccc3n2CCC(N)=O)cc1 | > 10000 |  |  |
| COCCCn1c(NC(=O)c2ccc(C#N)cc2)nc2cc(N(C)C(=O)C3CCCCC3)ccc21 |  | 16 |  |
| CC(C(=O)C1CCCCC1)c1ccc2c(c1)nc(CC(=O)c1ccc(C#N)cc1)n2CCC(N)=O (stereo not drawn) |  | 3 |  |
| CN(C(=O)C1CCCCC1)c1ccc2c(c1)nc(NC(=O)c1ccc(C#N)cc1)n2CC(N)=O |  | 73 |  |
| CN(C(=O)C1CCCCC1)c1ccc2c(c1)nc(NC(=O)c1cccs1)n2CCC(N)=O |  |  | Activity [8]: inactive; Activity [9]: inactive; Activity [10]: inactive |
| CN(C(=O)C1CCCCC1)c1ccc2c(c1)nc(NC(=O)c1cccc(C#N)c1)n2CCC(N)=O | 125 |  |  |
| CN(C(=O)C1CCCCC1)c1ccc2c(c1)nc(NC(=O)c1ccc(C#N)cc1)n2CCc1ccc(Cl)cc1Cl |  | 2000 |  |
